The values below come from US20110053900A1, “PROGESTERONE ANTAGONISTS SUCH AS CDB-4124 IN THE TREATMENT OF BREAST CANCER” (Repros Therapeutics inc, priority 2008, published 2011).

The subject of assay [1] is T47Darom cells. In words: Crystal violet cell proliferation assay in aromatase-overexpressing T47D cells. The class given is cell-based. As to conditions: Homo sapiens, 96 h, 4 μM alone, 4 days.
Text: Untreated cells were used as a control. The crystal violet assay was used to measure cell proliferation. The dye in this assay, crystal violet, stains DNA. Upon solubilization, the amount of dye taken up by the cells can be quantitated in a spectrophotometer.
For assay [2], the system named is progesterone receptor (PR). In words: Expression of progesterone receptor in tumors (IHC). The class given is in vivo, rat. As to conditions: 10 mg/kg. On the procedure:
(§1) The tumors that were evaluated for proliferation and apoptosis were also assessed for expression of estrogen and progesterone receptors by immunohistochemistry (IHC). The percentage of cells positive for ER and PR was determined and analyzed. Tumors were grouped into four different categories: tumors with 0% of cells expressing ER, tumors with 10% of cells expressing ER, tumors with 15 to 30% of cells expressing ER and tumors with 30-50% of cells expressing ER. In general, untreated tumors consistently expressed ER. Out of 12 tumors analyzed, all 12 expressed ER. Four out of these 12 tumors contained 30-50% ER-positive cells.
Untreated tumors consistently expressed PR (12/12 tumors). In general, untreated tumors expressed both receptors, ER and PR, therefore it is possible that many malignant tumors are expressors of these two transcription factors. […] In general, long term treatment with CDB-4124 tends to drive down the level of PR in tumors, whereas progesterone tends to work in the opposite direction. Thus, tumors maintain progesterone responsiveness in the presence of progesterone.

The test system of assay [3] is estrogen receptor (ER). In words: Expression of estrogen receptor in tumors (IHC). The class given is in vivo, rat. The conditions noted are these: 10 mg/kg. How it is done: as §1

Where only a bound is given, the exact number is not on record here.

Usually inhibition stands for the change of the read-out against control, counted positive when it falls. Low values mean little suppression, high ones strong suppression.

In assay [1], `COCC(=O)[C@@]1(OC(C)=O)CC[C@H]2[C@@H]3CCC4=CC(=O)CCC4=C3[C@@H](c3ccc(N(C)C)cc3)C[C@@]21C` [CDB-4124, 21-methoxy-17α-acetoxy-11β-(4 N,N-dimethylaminophenyl)-19-norpregna-4,9-diene-3,20-dione] gave an inhibition at 4 µM of less than 30%.

As to `CC#C[C@]1(O)CC[C@H]2[C@@H]3CCC4=CC(=O)CCC4=C3[C@@H](c3ccc(N(C)C)cc3)C[C@@]21C` [RU 486, mifepristone, reference compound], the “PR expression in tumors (in words)” value in assay [2] is on record as “neutral for PR”. Moreover, the “number of cells expressing ER in tumors (in words)” value in assay [3] is on record as “lowered the number of cells that express ERs”.
